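GI50: concentration for 50% inhibition of growth. TGI denotes the concentration required for complete inhibition of growth.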
Key:
Assay in all cases: NCI-60 cell line screen, 384-well format; in the data active means GI50 below about 0.43 µM; inactive means the rest
BT-549 breast = system: BT-549 breast
RXF 393 renal = system: RXF 393 renal
RPMI-8226 leukemia = system: RPMI-8226 leukemia
OVCAR-3 ovarian = system: OVCAR-3 ovarian
NCI-H322M lung = system: NCI-H322M lung
IGROV1 ovarian = system: IGROV1 ovarian
MDA-MB-231 breast = system: MDA-MB-231 breast
HS 578T breast = system: HS 578T breast
SNB-75 CNS = system: SNB-75 CNS
786-0 renal = system: 786-0 renal
SR leukemia = system: SR leukemia
HCT-15 colon = system: HCT-15 colon
SK-MEL-5 melanoma = system: SK-MEL-5 melanoma
HCT-116 colon = system: HCT-116 colon
TK-10 renal = system: TK-10 renal
SNB-19 CNS = system: SNB-19 CNS
LOX IMVI melanoma = system: LOX IMVI melanoma
SK-OV-3 ovarian = system: SK-OV-3 ovarian
CAKI-1 renal = system: CAKI-1 renal
NCI-H226 lung = system: NCI-H226 lung
OVCAR-4 ovarian = system: OVCAR-4 ovarian
HCC-2998 colon = system: HCC-2998 colon
SW-620 colon = system: SW-620 colon
MALME-3M melanoma = system: MALME-3M melanoma
UACC-62 melanoma = system: UACC-62 melanoma
NCI/ADR-RES ovarian = system: NCI/ADR-RES ovarian
COLO 205 colon = system: COLO 205 colon
SF-295 CNS = system: SF-295 CNS
UO-31 renal = system: UO-31 renal
KM12 colon = system: KM12 colon
NCI-H23 lung = system: NCI-H23 lung
PC-3 prostate = system: PC-3 prostate
HOP-92 NSCLC = system: HOP-92 NSCLC
MOLT-4 leukemia = system: MOLT-4 leukemia
SF-268 CNS = system: SF-268 CNS
NCI-H460 NSCLC = system: NCI-H460 NSCLC
OVCAR-8 ovarian = system: OVCAR-8 ovarian
DU-145 prostate = system: DU-145 prostate
SK-MEL-2 melanoma = system: SK-MEL-2 melanoma
MDA-MB-468 breast = system: MDA-MB-468 breast
A549 NSCLC = system: A549 NSCLC
HL-60(TB) leukemia = system: HL-60(TB) leukemia
HOP-62 NSCLC = system: HOP-62 NSCLC
M14 melanoma = system: M14 melanoma
SK-MEL-28 melanoma = system: SK-MEL-28 melanoma
EKVX NSCLC = system: EKVX NSCLC
ACHN renal = system: ACHN renal
OVCAR-5 ovarian = system: OVCAR-5 ovarian
U251 glioblastoma = system: U251 glioblastoma
CCRF-CEM leukemia = system: CCRF-CEM leukemia
K-562 leukemia = system: K-562 leukemia
SN12C renal = system: SN12C renal
MDA-MB-435 melanoma = system: MDA-MB-435 melanoma
NCI-H522 lung = system: NCI-H522 lung
MCF7 breast = system: MCF7 breast
SF-539 CNS = system: SF-539 CNS
A498 renal = system: A498 renal
UACC-257 melanoma = system: UACC-257 melanoma
T-47D breast = system: T-47D breast
HT29 colon = system: HT29 colon

Cc1[nH]nc(C(F)(F)F)c1Cc1sc2c(c1C(=O)N1C[C@](C)(O)CO1)c(=O)n(C)c(=O)n2C(C)C
> 86 µM: TGI (RPMI-8226 leukemia)
> 29.8 µM: TGI (HL-60(TB) leukemia)
active: GI50 (MOLT-4 leukemia) 0.0847 µM
> 80 µM: TGI (CAKI-1 renal)
18.3 µM: TGI (NCI-H522 lung)
> 100 µM: TGI (BT-549 breast) | TGI (RXF 393 renal) | TGI (OVCAR-3 ovarian) | TGI (NCI-H322M lung) | TGI (IGROV1 ovarian) | TGI (MDA-MB-231 breast) | TGI (HS 578T breast) | TGI (SNB-75 CNS) | TGI (786-0 renal) | TGI (SR leukemia) | TGI (HCT-15 colon) | TGI (SK-MEL-5 melanoma) | TGI (HCT-116 colon) | TGI (TK-10 renal) | TGI (SNB-19 CNS) | TGI (LOX IMVI melanoma) | TGI (SK-OV-3 ovarian) | TGI (NCI-H226 lung) | TGI (OVCAR-4 ovarian) | TGI (HCC-2998 colon) | TGI (SW-620 colon) | TGI (MALME-3M melanoma) | TGI (UACC-62 melanoma) | TGI (NCI/ADR-RES ovarian) | TGI (COLO 205 colon) | TGI (SF-295 CNS) | TGI (UO-31 renal) | TGI (KM12 colon) | TGI (NCI-H23 lung) | TGI (PC-3 prostate) | TGI (HOP-92 NSCLC) | TGI (NCI-H460 NSCLC) | TGI (OVCAR-8 ovarian) | TGI (DU-145 prostate) | TGI (SK-MEL-2 melanoma) | TGI (A549 NSCLC) | TGI (HOP-62 NSCLC) | TGI (M14 melanoma) | TGI (SK-MEL-28 melanoma) | TGI (EKVX NSCLC) | TGI (ACHN renal) | TGI (OVCAR-5 ovarian) | TGI (U251 glioblastoma) | TGI (K-562 leukemia) | TGI (SN12C renal) | TGI (MDA-MB-435 melanoma) | TGI (MCF7 breast) | TGI (SF-539 CNS) | TGI (A498 renal) | TGI (UACC-257 melanoma) | TGI (T-47D breast) | TGI (HT29 colon)
inactive: GI50 (BT-549 breast) > 57 µM | GI50 (RXF 393 renal) > 27.3 µM | GI50 (RPMI-8226 leukemia) 20.9 µM | GI50 (OVCAR-3 ovarian) > 29.3 µM | GI50 (NCI-H322M lung) > 100 µM | GI50 (IGROV1 ovarian) > 100 µM | GI50 (MDA-MB-231 breast) > 100 µM | GI50 (HS 578T breast) 8.39 µM | GI50 (SNB-75 CNS) > 41.9 µM | GI50 ([…]-0 renal) > 26.9 µM | GI50 (SR leukemia) > 100 µM | GI50 (HCT-15 colon) 12.2 µM | GI50 (HCT-116 colon) > 24.5 µM | GI50 (TK-10 renal) > 100 µM | GI50 (SNB-19 CNS) > 100 µM | GI50 (SK-OV-3 ovarian) > 100 µM | GI50 (CAKI-1 renal) > 47.6 µM | GI50 (NCI-H226 lung) > 100 µM | GI50 (OVCAR-4 ovarian) > 100 µM | GI50 (HCC-2998 colon) > 100 µM | GI50 (SW-620 colon) > 24.4 µM | GI50 (MALME-3M melanoma) > 77.9 µM | GI50 (NCI/ADR-RES ovarian) > 58.7 µM | GI50 (COLO 205 colon) > 21.8 µM | GI50 (SF-295 CNS) > 100 µM | GI50 (UO-31 renal) 12.9 µM | GI50 (KM12 colon) > 31.6 µM | GI50 (NCI-H23 lung) > 27.1 µM | GI50 (PC-3 prostate) > 100 µM | GI50 (HOP-92 NSCLC) > 100 µM | GI50 (OVCAR-8 ovarian) > 22.8 µM | GI50 (DU-145 prostate) > 30.5 µM | GI50 (SK-MEL-2 melanoma) 39.1 µM | GI50 (MDA-MB-468 breast) 4.75 µM | GI50 (A549 NSCLC) > 21.2 µM | GI50 (HOP-62 NSCLC) > 27.3 µM | GI50 (M14 melanoma) > 33.7 µM | GI50 (SK-MEL-28 melanoma) > 100 µM | GI50 (EKVX NSCLC) > 100 µM | GI50 (ACHN renal) > 33.1 µM | GI50 (OVCAR-5 ovarian) > 78.6 µM | GI50 (U251 glioblastoma) > 25 µM | GI50 (CCRF-CEM leukemia) 0.779 µM | GI50 (SN12C renal) > 100 µM | GI50 (MDA-MB-435 melanoma) > 69 µM | GI50 (NCI-H522 lung) 2.15 µM | GI50 (MCF7 breast) > 82.5 µM | GI50 (SF-539 CNS) > 27 µM | GI50 (A498 renal) > 100 µM | GI50 (UACC-257 melanoma) > 100 µM | GI50 (T-47D breast) > 100 µM | GI50 (HT29 colon) > 39.6 µM
66.4 µM: TGI (MDA-MB-468 breast)
> 29.6 µM: TGI (SF-268 CNS)
